The values below are quoted from earlier work in patent publication US20250268832A1, “Pretomanid Compositions” (The Global Alliance for TB Drug Development, Inc., priority 2019, published 2025).

Molecules are shown by their SMILES.

For data set [1] the following is noted: poorly soluble.
The subject of data set [2] is Mycobacterium tuberculosis. The following applies: background statement.
The subject of data set [3] is drug-resistant clinical isolates. The conditions noted are these: background statement.

Take `O=[N+]([O-])c1cn2c(n1)OC[C@@H](OCc1ccc(OC(F)(F)F)cc1)C2` [Pretomanid, (65)-2-nitro-6-{[4-(trifluoromethoxy)benzyl]oxy}-6,7,-dihydro-5H-imidazol[2.1b][1.3]oxazine]: in data set [1], the “Biopharmaceutics Classification System (BCS) class” value is reported as “Class II/IV”. Also, the activity in mice entry in data set [2] was “potent bactericidal and sterilizing agent”. Also, in data set [3], the “activity in vitro against drug-resistant clinical isolates” value is reported as “activity in vitro against all tested drug-resistant clinical isolates”.
